We go through two compounds from patent US10624343B2, “Phenyl urea compound, and use thereof” (Sumitomo Chemical Company, Limited, priority 2016, dated 2020).

Where only a bound is given, the exact number is not on record here.

This assay has as its system cucumber phytophthora blight fungi (Phytophthora capsici). Nature of the assay: Test for controlling cucumber phytophthora blight fungi (titer plate growth test). The format is cell-based. As to conditions: 4.5 mg in 100 μL dimethyl sulfoxide, 1 μL portion plus 150 μL PDB medium with zoospores; 27° C., three days; absorbance at 600 nm; Efficacy=100×(X−Y)/X. On the procedure:
Test example 1: Test for controlling cucumber phytophthora blight fungi (Phytophthora capsici)
Four point five (4.5) milligrams of the present compound was diluted with 100 μL of dimethyl sulfoxide. One (1) μL portion of the diluted liquid was dispensed into a titer plate (96 wells), and thereto was then dispensed 150 μL of a potato dextrose broth medium (PDB medium) containing zoospores of cucumber phytophthora blight fungi (Phytophthora capsici). This plate was cultured at 27° C. for three days, thereby allowing the cucumber phytophthora blight fungi to undergo proliferation, and the absorbance at 600 nm of each well of the titer plate was then measured to determine a degree of growth of the cucumber phytophthora blight fungi. The efficacy was calculated from the determined degree of growth by the below-mentioned “Equation 1”. As a result, the efficacy of the Present compound was 90% or more. Efficacy=100×(X−Y)/X “Equation 1” where X: Degree of fungal growth in non-treated area Y: Degree of fungal growth in treated area
In the test example, a non-treated area means an area in which a test was conducted in the same manner, except that dimethyl sulfoxide was dispensed in place of the present compound diluted with dimethyl sulfoxide.

For the compound `CCOC(=O)COc1ncccc1Oc1cc(NC(C)=O)c(F)cc1Cl` [N-[4-chloro-2-fluoro-5-{2-(ethoxycarbonyl)methoxy-3-pyridyloxy}phenyl]acetamide], the efficacy entry is on record as “less than 50%”.

Consider `CCOC(=O)COc1ncccc1Oc1cc(NC(N)=O)c(F)cc1Cl` [Present compound], for which the efficacy is at least 90%.
